Experimental data taken from ChEMBL document CHEMBL1201862, “PubChem BioAssay data set” (2004).
Active and inactive are the calls of the source.

How the values were obtained:
[1] = growth suppression of PTEN-null colon cells, dose response, cell-based, HCT116 PTEN knockout (AID 1047); assay type: functional;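 further: HCT116 colon tumor cells with PTEN knocked out; cells exposed to compound for 60 hours before readout; potency for loss of cell viability measured by luminescence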
[2] = growth suppression of beta-catenin-knockout colon cells, dose response, cell-based, HCT116, human colon tumor (AID 1045); assay type: functional;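 further: HCT116 colon tumor cells with beta catenin knocked out; cells exposed to compound for 60 hours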
[3] = target: T1, Calpain-2 catalytic subunit (Sus scrofa, UniProt P43367); experiment: pig calpain II inhibitor potency, dose response, biochemical, fluorogenic peptide substrate (AID 1420); assay type: functional
T1 sequence (P43367 whole entry): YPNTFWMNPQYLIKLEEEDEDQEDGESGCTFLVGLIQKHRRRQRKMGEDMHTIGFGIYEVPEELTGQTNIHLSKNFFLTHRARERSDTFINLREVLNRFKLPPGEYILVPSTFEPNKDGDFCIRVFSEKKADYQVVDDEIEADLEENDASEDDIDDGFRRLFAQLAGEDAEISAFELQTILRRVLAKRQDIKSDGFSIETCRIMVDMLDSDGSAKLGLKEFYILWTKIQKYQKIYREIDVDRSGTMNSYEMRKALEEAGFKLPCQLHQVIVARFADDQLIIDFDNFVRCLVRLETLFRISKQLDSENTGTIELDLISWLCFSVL

[4] = test system: INS1; experiment: beta cell apoptosis inhibitors, cytokine rescue, dose response, luminescence, retest (AID 449756); assay type: functional, cell-based; conditions: Rattus norvegicus;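 further: cell death triggered by IL-1 beta plus TNF-alpha plus IFN-gamma mixture; protective hits raise ATP signal compared with cytokine alone wells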
[5] = control 3'UTR Renilla luciferase suppression, dose response, counter-screen for Shn3 inhibitor project, cell-based, Clone20-Shn3RL, cherry-picked (AID 624133); assay type: functional
[6] = HepG2 cell cytotoxicity, dose response, cytotoxicity control for Shn3 inhibitor project, CellTiter-Glo, cherry-picked (AID 624134); assay type: functional, cell-based
[7] = Shn3 3'UTR reporter inhibitors, dose response, cell-based, Clone20 osteoblasts, firefly luciferase, cherry-picked (AID 624132); assay type: functional;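 further: firefly luciferase luminescence from reporter carrying the Shn3 3'UTR in osteoblasts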
[8] = target: Induced myeloid leukemia cell differentiation protein Mcl-1 (Homo sapiens, UniProt Q07820); assay type: functional
Chain of Induced myeloid leukemia cell differentiation protein Mcl-1 (Q07820 whole entry, the tested form may be a part): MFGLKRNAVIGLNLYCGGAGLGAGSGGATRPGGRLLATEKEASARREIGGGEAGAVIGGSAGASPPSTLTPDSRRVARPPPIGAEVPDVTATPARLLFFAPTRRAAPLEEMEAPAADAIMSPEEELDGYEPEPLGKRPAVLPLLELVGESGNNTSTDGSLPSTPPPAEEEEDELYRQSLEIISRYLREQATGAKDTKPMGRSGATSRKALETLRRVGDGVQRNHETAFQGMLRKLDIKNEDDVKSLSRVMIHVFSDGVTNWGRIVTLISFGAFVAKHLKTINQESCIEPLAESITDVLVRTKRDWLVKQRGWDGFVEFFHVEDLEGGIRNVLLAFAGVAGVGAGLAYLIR

[9] = target: T2, Carboxy-terminal domain RNA polymerase II polypeptide A small phosphatase 1 (Homo sapiens, UniProt Q9GZU7); experiment: inhibitors of CTDSP1, concentration-response testing, biochemical assay, absorbance-based, actives from ultra-high-throughput screening (AID 540297); assay type: functional
T2 sequence (Q9GZU7 whole entry): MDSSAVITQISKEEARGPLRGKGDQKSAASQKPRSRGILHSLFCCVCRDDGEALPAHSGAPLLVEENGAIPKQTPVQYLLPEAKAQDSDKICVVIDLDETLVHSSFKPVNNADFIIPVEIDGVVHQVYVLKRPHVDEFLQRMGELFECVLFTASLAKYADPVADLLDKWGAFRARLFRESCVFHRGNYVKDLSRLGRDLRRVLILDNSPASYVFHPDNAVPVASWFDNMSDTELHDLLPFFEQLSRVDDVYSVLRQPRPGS

[10] = target: T3, Rac GTPase-activating protein 1 (Homo sapiens, UniProt Q9H0H5); experiment: MgcRacGAP GTPase-activating activity inhibitors, confirmation, biochemical, ADP Hunter fluorescence, primary and confirmatory (AID 624330); assay type: functional
T3 sequence (Q9H0H5 whole entry): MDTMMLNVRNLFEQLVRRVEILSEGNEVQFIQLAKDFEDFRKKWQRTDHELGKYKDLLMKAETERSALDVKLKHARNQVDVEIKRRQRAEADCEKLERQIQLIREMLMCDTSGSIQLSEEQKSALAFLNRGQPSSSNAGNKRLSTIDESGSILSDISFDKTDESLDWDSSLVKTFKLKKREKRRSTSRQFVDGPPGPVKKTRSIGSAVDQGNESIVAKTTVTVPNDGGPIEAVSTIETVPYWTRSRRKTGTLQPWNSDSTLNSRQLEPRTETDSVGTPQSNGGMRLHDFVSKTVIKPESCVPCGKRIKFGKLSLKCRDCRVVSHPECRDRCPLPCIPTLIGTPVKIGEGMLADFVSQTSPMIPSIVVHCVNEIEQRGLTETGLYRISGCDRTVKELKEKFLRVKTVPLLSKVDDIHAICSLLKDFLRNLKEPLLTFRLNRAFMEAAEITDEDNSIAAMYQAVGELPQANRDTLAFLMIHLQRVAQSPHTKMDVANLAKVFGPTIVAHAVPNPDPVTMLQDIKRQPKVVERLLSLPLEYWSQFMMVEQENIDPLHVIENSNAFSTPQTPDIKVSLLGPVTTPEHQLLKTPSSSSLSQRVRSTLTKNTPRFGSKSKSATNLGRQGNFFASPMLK

[11] = THP-1 cell cytotoxicity, dose response, cytotoxicity control for non-replicating M. tuberculosis project (AID 489025); assay type: functional
[12] = cells; assay type: functional
[13] = target: T4, Cytochrome P450 1A2 (Homo sapiens, UniProt P05177);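 further: PubChem cytochrome P450 panel assay, CYP1A2 panel member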
T4 sequence (P05177 whole entry): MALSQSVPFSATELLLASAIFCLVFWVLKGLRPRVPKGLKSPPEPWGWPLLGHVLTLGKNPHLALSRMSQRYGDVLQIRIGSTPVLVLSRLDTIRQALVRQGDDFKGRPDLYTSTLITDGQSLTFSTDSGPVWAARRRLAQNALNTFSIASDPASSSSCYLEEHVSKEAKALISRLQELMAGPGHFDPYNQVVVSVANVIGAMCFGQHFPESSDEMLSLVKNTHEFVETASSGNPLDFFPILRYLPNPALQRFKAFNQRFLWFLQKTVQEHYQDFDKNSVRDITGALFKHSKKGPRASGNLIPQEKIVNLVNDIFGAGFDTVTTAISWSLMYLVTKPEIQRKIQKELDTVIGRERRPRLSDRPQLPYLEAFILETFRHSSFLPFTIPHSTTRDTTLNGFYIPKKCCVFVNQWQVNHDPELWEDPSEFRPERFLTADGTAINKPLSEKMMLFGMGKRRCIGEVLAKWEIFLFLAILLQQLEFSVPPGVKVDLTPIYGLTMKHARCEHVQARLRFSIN

[14] = target: Cytochrome P450 3A4 (Homo sapiens, UniProt P08684);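 further: CYP3A4 tested as one member of a cytochrome P450 panel screen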
Chain of Cytochrome P450 3A4 (P08684 whole entry): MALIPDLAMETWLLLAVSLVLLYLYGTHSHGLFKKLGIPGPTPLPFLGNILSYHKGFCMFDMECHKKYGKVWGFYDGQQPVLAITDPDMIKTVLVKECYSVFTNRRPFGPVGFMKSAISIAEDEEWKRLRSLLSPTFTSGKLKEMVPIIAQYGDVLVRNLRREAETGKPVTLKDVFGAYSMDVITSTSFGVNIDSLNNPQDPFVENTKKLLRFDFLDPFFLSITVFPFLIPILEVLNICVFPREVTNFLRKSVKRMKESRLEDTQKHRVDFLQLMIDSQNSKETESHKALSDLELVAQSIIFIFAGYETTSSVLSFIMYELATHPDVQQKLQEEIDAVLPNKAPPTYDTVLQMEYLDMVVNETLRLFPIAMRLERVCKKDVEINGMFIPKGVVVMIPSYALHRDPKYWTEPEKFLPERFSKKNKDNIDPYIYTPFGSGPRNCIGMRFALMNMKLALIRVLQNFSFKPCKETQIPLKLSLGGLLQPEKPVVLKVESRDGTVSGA

[15] = microbe, parasite or virus in culture; assay type: functional; conditions: Mycobacterium tuberculosis
[16] = test system: P388/ADR; experiment: cells; assay type: functional; conditions: Mus musculus
[17] = test system: SN12K1; experiment: cells; assay type: functional; conditions: Homo sapiens
[18] = test system: P388; experiment: cells; assay type: functional; conditions: Mus musculus

c1ccc(N2CCN(c3ncnc4scc(-c5cccs5)c34)CC2)cc1
EC50 [1]: 56.8 µM (active)
EC50 [2]: 71.5 µM (active)
IC50 [3]: 1.1 µM (not active)

CC1=C(C#N)C(C(F)(F)F)(C(F)(F)F)NC(c2ccco2)=N1
AC50 [4]: 4.65 µM (active)
AC50 [5]: 10.1 µM (active)
AC50 [6]: > 70 µM (inactive)
AC50 [7]: 7.72 µM (active)

CCN(CC)c1ccc(NC(=O)c2ccccc2OCC(=O)OC)cc1
IC50 [8]: 6.35 µM (not active)

O=C(/C=C/c1cccs1)N1CCOCC1
IC50 [3]: > 50 µM (not active)

CC(=O)c1cccc(NC(=O)COc2cc3oc(=O)c(CC(C)O)c(C)c3cc2Cl)c1 (configuration not stated)
IC50 [9]: 12.5 µM (active)

CCOc1cc(/C=C(\C#N)c2n[nH]c(N)c2C#N)ccc1O
IC50 [8]: 5.24 µM (active)
IC50 [10]: 17.1 µM (active)

CC1(C(=O)OCC(=O)Nc2nnc(-c3ccccc3)o2)CC1(Cl)Cl (configuration not stated)
CC50 [11]: > 40 µM (active)
IC50 [12]: 24.9 µM (active)

CCNc1nc(NCC)nc(C(=O)NN)n1
IC50 [8]: 2.32 µM (active)

CC1CCCN(C(=O)c2sc3cc([N+](=O)[O-])ccc3c2Cl)C1 (configuration not stated)
AC50 [13]: 15.8 µM (inconclusive)
IC50 [3]: 7.61 µM (active)
AC50 [14]: 17.8 µM (inconclusive)

CCn1c(C)cc(C)[n+]1-c1ccccc1
IC50 [9]: 13.2 µM (active)

CC(/C=N/NC(=O)c1cc(-c2ccc3ccccc3c2)[nH]n1)=C\c1ccco1
IC50 [8]: 4.1 µM (active)
CC50 [15]: 37.2 µM (active)

[N-]=[N+]=CC(=O)CCC(NC(=O)C(CCC(=O)C=[N+]=[N-])NC(=O)CCC(N)C(=O)O)C(=O)O (configuration not stated)
GI50 [16]: > 100 µM (inactive)
GI50 [17]: > 100 µM (inactive)
GI50 [18]: > 100 µM (inactive)

Cc1cc([N+](=O)[O-])c(-c2ccc(/C=N/n3cnnc3)o2)cc1Cl
IC50 [3]: 1.59 µM (not active)

C/N=C1/S/C(=C\c2ccc(OCC(=O)OC)c(OC)c2)C(=O)N1C
CC50 [11]: > 40 µM (active)
IC50 [12]: 4.45 µM (active)
